# Measurements as given in article PMC9471048, “The signaling and selectivity of α‐adrenoceptor agonists for the human α2A, α2B and α2C‐adrenoceptors and comparison with human α1 and β‐adrenoceptors” (Pharmacology Research & Perspectives, 2022).
# Where two headings read alike, the source gives them in different places.
# Tests used:
# [1] = system: parent CHO cells (no transfected receptor); parameters: method as in PMID 34355529; conditions: non‐α‐mediated mechanism; cited from earlier work
# [2] = target: T1, human α2A‐adrenoceptor (Homo sapiens, UniProt P08913); conditions: for Log EC50 (Gs), CRE‐SPAP (without forskolin): absence of forskolin; for IC50: CRE‐SPAP (with forskolin), 3 μM forskolin
# T1 sequence (P08913 1-465): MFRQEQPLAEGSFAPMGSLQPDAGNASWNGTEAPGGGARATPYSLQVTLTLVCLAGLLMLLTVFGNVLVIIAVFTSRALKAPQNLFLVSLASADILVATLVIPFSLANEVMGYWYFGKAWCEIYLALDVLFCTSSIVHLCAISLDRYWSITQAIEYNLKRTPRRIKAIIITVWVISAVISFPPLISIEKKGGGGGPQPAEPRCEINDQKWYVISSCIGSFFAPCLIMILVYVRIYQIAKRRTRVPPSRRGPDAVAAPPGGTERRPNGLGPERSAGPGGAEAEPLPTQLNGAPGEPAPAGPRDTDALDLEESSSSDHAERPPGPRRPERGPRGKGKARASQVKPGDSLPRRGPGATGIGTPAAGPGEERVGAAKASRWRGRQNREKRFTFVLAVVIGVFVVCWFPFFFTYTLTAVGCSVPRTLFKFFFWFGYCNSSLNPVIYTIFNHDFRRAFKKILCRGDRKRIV
# [3] = target: T2, human α2C‐adrenoceptor (Homo sapiens, UniProt P18825); conditions: CHO‐α2C cells; for % inhibition, CRE‐SPAP (with forskolin): % inhibition from the 3 μM forskolin control, mean ± SEM; for Log EC50 (Gs), CRE‐SPAP (without forskolin): CRE‐SPAP production in the absence of forskolin; for Log efficacy ratio (KD/IC50): log KD from 3H‐rauwolscine binding versus CRE‐SPAP log IC50; for IC50: Log IC50 (Gi), CRE‐SPAP (with forskolin), inhibition of 3 μM forskolin‐stimulated CRE‐SPAP production, given as negative log IC50, mean ± SEM
# T2 sequence (P18825 1-462): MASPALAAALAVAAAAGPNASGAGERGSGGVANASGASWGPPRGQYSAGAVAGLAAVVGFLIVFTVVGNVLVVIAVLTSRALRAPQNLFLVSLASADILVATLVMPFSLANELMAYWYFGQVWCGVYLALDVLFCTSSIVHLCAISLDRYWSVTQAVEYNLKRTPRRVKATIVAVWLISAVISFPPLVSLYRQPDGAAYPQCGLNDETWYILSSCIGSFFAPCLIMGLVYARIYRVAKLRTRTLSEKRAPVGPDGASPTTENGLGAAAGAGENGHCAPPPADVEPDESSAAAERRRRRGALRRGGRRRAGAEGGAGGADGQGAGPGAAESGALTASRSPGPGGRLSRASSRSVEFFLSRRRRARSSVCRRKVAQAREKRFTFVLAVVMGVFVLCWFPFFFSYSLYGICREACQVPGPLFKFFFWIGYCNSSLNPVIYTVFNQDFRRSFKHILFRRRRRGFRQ
# [4] = target: T1, human α2A‐adrenoceptor; experiment: 3H‐rauwolscine whole cell binding in CHO‐α2A cells; parameters: expressed in transfected cells; host or cells: CHO-K1 with CRE-SPAP reporter; conditions: for Kd: 3H‐rauwolscine whole cell binding; for Selectivity ratio α2A vs α2B (higher affinity for α2A) / Selectivity ratio α2A vs α2C (higher affinity for α2A): fold, from KD values, 1 = no selectivity
# [5] = target: T2, human α2C‐adrenoceptor; experiment: 3H‐rauwolscine whole cell binding in CHO‐α2C cells; parameters: expressed in transfected cells; host or cells: CHO-K1 with CRE-SPAP reporter; conditions: for Kd: 3H‐rauwolscine whole cell binding; for Selectivity ratio α2B vs α2C (higher affinity for α2C): fold, from KD values, 1 = no selectivity
# [6] = target: T1, human α2A‐adrenoceptor; experiment: ERK1/2‐phosphorylation in CHO‐α2A cells; type: cell-based; parameters: expressed in transfected cells; host or cells: CHO-K1 with CRE-SPAP reporter; conditions: CHO‐α2A; for % 10 μM PDBu, ERK1/2‐phosphorylation: maximum response compared to 10 μM PDBu; for EC50: read-out: Log EC50, ERK1/2‐phosphorylation (converted)
# [7] = target: T2, human α2C‐adrenoceptor; experiment: ERK1/2‐phosphorylation in CHO‐α2C cells; type: cell-based; parameters: expressed in transfected cells; host or cells: CHO-K1 with CRE-SPAP reporter; conditions: CHO‐α2C cells; for % 10 μM PDBu, ERK1/2‐phosphorylation: maximum response compared to 10 μM PDBu, mean ± SEM; for EC50: given as negative log EC50, mean ± SEM, read-out: Log EC50, ERK1/2‐phosphorylation (converted)
# [8] = CHO‐α2A, given as negative log KD, read-out: Log KD (binding) (converted)
# [9] = CHO‐α2C cells, given as negative log KD, mean only (SEM in Table 4), read-out: Log KD (converted)
Structure (SMILES),ERK1/2‐phosphorylation agonist response in parent cells [1],"Log EC50 (Gs), CRE‐SPAP (without forskolin) ([2]; CHO‐α2A (cell line 1))","% inhibition, CRE‐SPAP (with forskolin) [3] [%]","Log EC50 (Gs), CRE‐SPAP (without forskolin) [3]",Log efficacy ratio (KD/IC50) [3],IC50 [3] [nM],"Kd [4, 8] [nM]",Selectivity ratio α2A vs α2B (higher affinity for α2A) [4],Selectivity ratio α2A vs α2C (higher affinity for α2A) [4],"Kd [5, 9] [nM]",Selectivity ratio α2B vs α2C (higher affinity for α2C) [5],"% 10 μM PDBu, ERK1/2‐phosphorylation [6] [%]",EC50 [6] [nM],"% 10 μM PDBu, ERK1/2‐phosphorylation [7] [%]",EC50 [7] [nM],further results
Cc1cc(C(C)(C)C)c(O)c(C)c1CC1=NCCN1 [Oxymetazoline],stimulate ERK1/2‐phosphorylation agonist responses,–,–,–,–,–,–,–,–,–,–,–,–,–,–,–
CN1C[C@H](C(=O)N[C@]2(C)O[C@@]3(O)[C@@H]4CCCN4C(=O)[C@H](Cc4ccccc4)N3C2=O)C[C@@H]2c3cccc4[nH]cc(c34)C[C@H]21 [Dihydroergotamine],stimulate ERK1/2‐phosphorylation agonist responses,–,–,–,–,–,–,–,–,–,–,–,–,–,–,–
COc1ccc(OC)c(C(O)C(C)N)c1 (centres unmarked) [Methoxamine],–,No response,72.3 ± 13.6,No response,1.01,11000,93300,2.5,1.2,112000,2.1,120.9 ± 29.4,6030,131.0 ± 19.2,2340,"IC50 ([2]; IC50 (Gi), CHO‐α2A): > 100000 nM; Kd ([4]; ^app: apparent KD, IC50 from extrapolated curve as not all specific binding was inhibited, read-out: Log KD (apparent), CHO‐α2A (converted)): 93300 nM; Kd ([5]; ^app: apparent KD, IC50 from extrapolated curve as not all specific binding was inhibited, read-out: Log KD (apparent), CHO‐α2C (converted)): 112000 nM"
C1COC(NC(C2CC2)C2CC2)=N1 [Rilmenidine],–,No response,69.0 ± 7.9,No response,0.52,468,1550,2.6,1.0,1550,2.6,144.0 ± 22.0,14.8,125.2 ± 15.6,49,"% inhibition, CRE‐SPAP (with forskolin) ([2]; CHO‐α2A (cell line 1), % inhibition from the 3 μM forskolin control, inhibition only): 94.2 ± 3.6%; Log efficacy ratio (KD/IC50) ([2]; CHO‐α2A, binding KD / Gi IC50 of CRE‐SPAP): 0.96; IC50 ([2]; Log IC50 (Gi), CHO‐α2A (cell line 1, 5830 fmol/mg protein)): 170 nM; Kd ([4]; living cells, negative log KD, mean ± SEM, read-out: Log KD, CHO‐α2A (converted)): 1550 nM; Kd ([5]; living cells, negative log KD, mean ± SEM, read-out: Log KD, CHO‐α2C (converted)): 1550 nM"
